Patent US20160158377A1, “BCL-XL Inhibitory Compounds and Antibody Drug Conjugates Including the Same” (AbbVie Inc., priority 2014, published 2016)
Read-outs that look alike come from different tables or passages of the source.

Assays:
circulating platelets [1] = details: mouse, in vivo
circulating platelets [2] = experiment: Number of circulating platelets in mice after single intraperitoneal injection; details: for Time after injection at which thrombocytopenia was maximal: following injection of the compounds
Bcl-xL = Bcl-xL (Homo sapiens, UniProt Q07817); experiment: TR-FRET Bcl-xL binding assay (competition with probe F-Bak)
Bcl-xL, sequence (Q07817 whole entry): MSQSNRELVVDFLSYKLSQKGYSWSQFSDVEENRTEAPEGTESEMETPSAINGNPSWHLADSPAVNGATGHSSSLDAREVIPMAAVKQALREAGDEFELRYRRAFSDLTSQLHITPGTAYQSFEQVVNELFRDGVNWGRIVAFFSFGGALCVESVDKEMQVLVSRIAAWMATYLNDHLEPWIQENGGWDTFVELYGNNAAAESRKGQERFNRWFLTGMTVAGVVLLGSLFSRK
How it was run: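 Compounds were serially diluted from 50 μM (2× starting concentration, 10% DMSO) and mixed with Bcl-xL, F-Bak probe and Tb-labeled anti-His antibody, then incubated 2 h at room temperature. TR-FRET was read at 340 nm excitation and 520/495 nm emission. Ki came from Wang's equation; tested without and with 1% human serum.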

[3] = test system: Molt-4 human acute lymphoblastic leukemia cells; experiment: Molt-4 cell viability assay; format: cell-based; details: 10% human serum, 48 hours, CellTiter-Glo, read-out: Molt-4 Viability EC50 (nM, 10% HS)
[4] = in the presence of 1% human serum (HS), read-out: Bcl-xL Binding Ki (nM, 1% HS)
[5] = without human serum, read-out: Bcl-xL Binding Ki

Row | Compound | Time after injection at which thrombocytopenia was maximal (circulating platelets [2]) | Ki (Bcl-xL; [4]) | Ki (Bcl-xL; [5]) | EC50 [3] | other results
1 | CC1(C)CCC(c2ccc(Cl)cc2)=C(CN2CCN(c3ccc(C(=O)NS(=O)(=O)c4ccc(N[C@H](CCN5CCOCC5)CSc5ccccc5)c(S(=O)(=O)C(F)(F)F)c4)cc3)CC2)C1 [ABT-263, Navitoclax] | – | – | – | – | Time after injection at which thrombocytopenia was maximal (circulating platelets [1]): 6 h; Time to lowest count (circulating platelets [1]; 100 mg/kg): 6 h
2 | Cc1c(-c2ccc(N3CCc4cccc(C(=O)Nc5nc6ccccc6s5)c4C3)nc2C(=O)O)cnn1CC12CC3CC(CC(C3)C1)C2 [Compound A-1331852] | 6 h | – | – | – | Time to lowest count (circulating platelets [2]; dose 25 mg/kg): 6 h
3 | Cc1c(-c2ccc(-c3ccc4cccc(C(=O)Nc5nc6ccccc6s5)c4c3)nc2C(=O)O)cnn1CC12CC3(C)CC(C)(C1)CC(OCCNCCCO)(C3)C2 [Compound W3.37, 6-[8-(1,3-benzothiazol-2-ylcarbamoyl)naphthalen-2-yl]-3-{1-[(3-{2-[(3-hydroxypropyl)amino]ethoxy}-5,7-dimethyltricyclo[3.3.1.1^3,7]dec-1-yl)methyl]-5-methyl-1H-pyrazol-4-yl}pyridine-2-carboxylic acid] | – | 0.58 nM | 0.03 nM | 10.8 nM | –
4 | CNC(=O)CCNCCOC12CC3(C)CC(C)(CC(Cn4ncc(-c5ccc(N6CCc7cccc(C(=O)Nc8nc9ccccc9s8)c7C6)nc5C(=O)O)c4C)(C3)C1)C2 [Compound W3.39, 6-[8-(1,3-benzothiazol-2-ylcarbamoyl)-3,4-dihydroisoquinolin-2(1H)-yl]-3-(1-{[3,5-dimethyl-7-(2-{[3-(methylamino)-3-oxopropyl]amino}ethoxy)tricyclo[3.3.1.1^3,7]dec-1-yl]methyl}-5-methyl-1H-pyrazol-4-yl)pyridine-2-carboxylic acid] | – | 0.44 nM | 0.015 nM | 37.7 nM | –
5 | CNCCOC12CC3(C)CC(C)(CC(Cn4ncc(-c5ccc(N6CCc7cccc(C(=O)Nc8nc9ccccc9s8)c7C6)nc5C(=O)O)c4C)(C3)C1)C2 [Example 2.32.24, 6-[8-(1,3-benzothiazol-2-ylcarbamoyl)-3,4-dihydroisoquinolin-2(1H)-yl]-3-[1-({3,5-dimethyl-7-[2-(methylamino)ethoxy]tricyclo[3.3.1.1^3,7]dec-1-yl}methyl)-5-methyl-1H-pyrazol-4-yl]pyridine-2-carboxylic acid] | 6 h | – | – | – | Platelet number after dosing (circulating platelets [2]; dose 0.61 mg/kg): 6*10^3 /mm^3; Time to lowest count (circulating platelets [2]; dose 0.61 mg/kg): 6 h; Decrease of the platelet number (circulating platelets [2]; dose 0.61 mg/kg, from normal count of approximately 6*10^5/mm^3): 100 fold
